Experiment: xn = mol fraction of the nth substance listed
Settings: 93.2 kPa, Liquid, Vibrating tube method

CCN(CC)CC [triethylamine] + CC#N
mass density [kg/m3]
Settings | 293.15 K | 298.15 K | 303.15 K | 308.15 K
x2 = 0 | 727.7 | 723.02 | 718.36 | 713.65
x2 = 0.0113 | 728.13 | 723.44 | 718.77 | 714.06
x2 = 0.0212 | 728.41 | 723.73 | 719.05 | 714.32
x2 = 0.03 | 728.67 | 723.97 | 719.29 | 714.57
x2 = 0.0406 | 728.98 | 724.28 | 719.6 | 714.86
x2 = 0.0502 | 729.23 | 724.53 | 719.84 | 715.1
x2 = 0.0591 | 729.48 | 724.77 | 720.06 | 715.32
x2 = 0.0701 | 729.78 | 725.07 | 720.35 | 715.6
x2 = 0.0842 | 730.18 | 725.45 | 720.73 | 715.97
x2 = 0.0944 | 730.47 | 725.73 | 721.02 | 716.24
x2 = 0.1013 | 730.66 | 725.97 | 721.24 | 716.48
x2 = 0.1519 | 732.16 | 727.46 | 722.63 | 717.85
x2 = 0.1991 | 733.6 | 728.85 | 723.99 | 719.16
x2 = 0.2501 | 735.21 | 730.39 | 725.53 | 720.64
x2 = 0.3018 | 736.94 | 732.07 | 727.17 | 722.25
x2 = 0.3505 | 738.65 | 733.76 | 728.84 | 723.88
x2 = 0.4003 | 740.52 | 735.58 | 730.62 | 725.63
x2 = 0.4482 | 742.43 | 737.48 | 732.49 | 727.48
x2 = 0.5002 | 744.69 | 739.7 | 734.68 | 729.63
x2 = 0.5511 | 747.1 | 742.08 | 737.03 | 731.95
x2 = 0.5995 | 749.58 | 744.55 | 739.43 | 734.36
x2 = 0.6499 | 752.4 | 747.32 | 742.18 | 737.06
x2 = 0.702 | 755.6 | 750.5 | 745.3 | 740.16
x2 = 0.7498 | 758.83 | 753.71 | 748.42 | 743.28
x2 = 0.7998 | 762.53 | 757.35 | 752.07 | 746.81
x2 = 0.85 | 766.68 | 761.45 | 756.13 | 750.82
x2 = 0.8994 | 771.19 | 765.92 | 760.59 | 755.2
x2 = 0.9095 | 772.21 | 766.93 | 761.6 | 756.23
x2 = 0.9199 | 773.25 | 767.97 | 762.63 | 757.25
x2 = 0.9293 | 774.23 | 768.93 | 763.58 | 758.19
x2 = 0.9402 | 775.35 | 770.05 | 764.69 | 759.29
x2 = 0.9495 | 776.36 | 771.03 | 765.7 | 760.33
x2 = 0.9591 | 777.43 | 772.08 | 766.69 | 761.27
x2 = 0.9685 | 778.48 | 773.13 | 767.72 | 762.31
x2 = 0.99 | 780.9 | 775.52 | 770.1 | 764.64

— the NIST ThermoML archive (doi:10.1016/j.jct.2015.09.002)
